Target: T1, ph01207 (Homo sapiens, UniProt O60241, DEL308-362)
T1 construct: containing an ORF that encodes 1518 amino acid residues; expressed in transfected cells; host or cells: CHO-K1 (clone ph01207 #3F8-17)
Test: Inhibition of the CCK-8S response (intracellular Ca2+), ph01207 #3F8-17 cell line
Assay type: cell-based
Settings: for response of ph01207 #3F8-17 cell line to the ligand (increase in intracellular Ca^2+ by CCK-8S): compound 10 µg/mL added 35 sec before 10 nM CCK-8S, buffer as control
Experimental: Identification of a compound that inhibits a response of ph01207 gene product to a ligand was carried out with a system for measuring a change in intracellular calcium concentration using ph01207 expressing cell line.
ph01207 expressing cell line was constructed as follows. […] Detection of the expression of introduced genes in cells was carried out by FCM analysis using anti-ph01207 antibody
As a result, a plurality of cell lines that stably expressed ph01207 was obtained. Identification of a compound was carried out using ph01207 #3F8-17 cell line that was one of clones among them.
As a ligand, CCK-8S (Peptide Institute) was used. 0.52 mg of CCK-8S (SEQ ID NO: 14) was dissolved in 4.5 mL of 1% NaHCO3 (Wako) to prepare a solution of 0.1 mM concentration. As a test compound, SoftFocus GPCR Target-Directed Library that is a compound library (BioFocus) was used. A 2 mg/mL DMSO solution of each compound was diluted 25-fold with PBS to adjust the concentration to 80 µg/mL for use.
Specifically, identification of a compound was carried out as follows. ph01207 #3F8-17 cell line was seeded in 96-well plates with a black wall surface and transparent bottom) at 3 × 10^4 cells /100 µL medium/well, and cultured at 37°C in the presence of 5% CO2. DMEM/F12 (supplied by Gibco) containing 10% fetal calf serum (supplied by Moregate) was used as the medium. On the next day, 20 µL of 6 × loading buffer was added to each well to allow for a reaction at 37°C for 1 h so as to allow cells to incorporate fluorescent dye contained in the loading buffer. The 6 × loading buffer was prepared by dissolving component A of the FLIPR Calcium 3 Assay Kit (Molecular Devices Corp.) with component B followed by adding probenecid (Sigma) to have a final concentration of 15 mM. After the reaction, CCK-8S (Peptide Institute) and a compound were added to measure a change in the fluorescence intensity time-dependently for each well for 80 sec. […] A time-dependent measurement of the change in the fluorescence intensity was carried out using FLEXstation (Molecular Devices Corp.).

T1 sequence (O60241 with tags, fused parts or gaps isoform O60241-3 DEL296-350): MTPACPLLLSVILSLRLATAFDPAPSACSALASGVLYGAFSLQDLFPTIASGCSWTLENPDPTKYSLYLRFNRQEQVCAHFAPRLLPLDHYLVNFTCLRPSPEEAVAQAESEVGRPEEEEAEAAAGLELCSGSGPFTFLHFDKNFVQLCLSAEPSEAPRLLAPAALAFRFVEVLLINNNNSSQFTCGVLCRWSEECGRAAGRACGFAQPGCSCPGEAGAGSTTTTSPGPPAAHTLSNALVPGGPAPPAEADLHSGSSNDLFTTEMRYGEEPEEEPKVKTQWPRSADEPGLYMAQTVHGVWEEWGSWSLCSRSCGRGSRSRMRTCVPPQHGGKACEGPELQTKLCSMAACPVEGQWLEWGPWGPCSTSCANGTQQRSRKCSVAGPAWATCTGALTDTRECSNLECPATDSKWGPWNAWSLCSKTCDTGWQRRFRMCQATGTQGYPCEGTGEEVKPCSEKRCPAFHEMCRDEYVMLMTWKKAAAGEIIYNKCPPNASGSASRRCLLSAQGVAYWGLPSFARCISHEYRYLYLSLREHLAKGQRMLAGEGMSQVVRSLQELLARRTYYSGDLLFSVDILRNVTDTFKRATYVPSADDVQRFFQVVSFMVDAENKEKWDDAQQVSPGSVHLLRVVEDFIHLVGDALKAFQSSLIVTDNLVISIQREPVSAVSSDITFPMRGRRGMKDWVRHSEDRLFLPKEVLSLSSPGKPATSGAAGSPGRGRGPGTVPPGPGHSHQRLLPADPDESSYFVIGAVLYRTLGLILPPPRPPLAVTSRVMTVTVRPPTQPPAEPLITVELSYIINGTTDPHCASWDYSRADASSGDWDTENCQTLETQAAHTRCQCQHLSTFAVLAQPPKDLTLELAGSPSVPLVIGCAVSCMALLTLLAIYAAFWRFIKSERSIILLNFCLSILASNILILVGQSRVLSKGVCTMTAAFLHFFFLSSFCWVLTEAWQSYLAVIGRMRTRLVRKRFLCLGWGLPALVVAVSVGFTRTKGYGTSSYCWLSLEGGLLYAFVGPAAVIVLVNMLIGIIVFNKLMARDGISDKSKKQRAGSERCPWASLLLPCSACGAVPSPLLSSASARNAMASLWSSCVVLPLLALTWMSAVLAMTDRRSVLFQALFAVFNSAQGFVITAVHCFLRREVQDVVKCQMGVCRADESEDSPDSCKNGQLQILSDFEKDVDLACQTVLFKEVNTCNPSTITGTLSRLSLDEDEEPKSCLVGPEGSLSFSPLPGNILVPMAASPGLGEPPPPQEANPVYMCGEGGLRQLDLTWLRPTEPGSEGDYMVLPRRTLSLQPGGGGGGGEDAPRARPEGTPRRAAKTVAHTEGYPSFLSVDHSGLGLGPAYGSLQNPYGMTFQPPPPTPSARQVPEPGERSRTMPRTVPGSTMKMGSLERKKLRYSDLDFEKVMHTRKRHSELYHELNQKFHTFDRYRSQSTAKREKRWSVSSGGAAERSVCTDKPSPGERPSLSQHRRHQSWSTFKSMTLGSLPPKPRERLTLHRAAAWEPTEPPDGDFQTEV

Compound | response of ph01207 #3F8-17 cell line to the ligand (increase in intracellular Ca^2+ by CCK-8S) | change in fluorescence intensity on addition of the compound alone (ph01207 #3F8-17 cell line, compound 10 µg/mL added at 15 sec, before CCK-8S)
O=C(c1cnc2ccccc2c1)N1CCC2(CC1)OCc1ccccc1O2 [compound C] | inhibited | –
O=C(Nc1cccc(C(F)(F)F)c1)N1CCC2(C1)NCCc1c2[nH]c2ccccc12 (stereo not drawn) [compound A] | – | No change
O=C(Nc1ccccc1)N1CCC2(CC1)NCCc1c2[nH]c2ccccc12 [compound B] | inhibited | –

Source: EP1884568A1, “METHOD FOR IDENTIFICATION OF COMPOUND HAVING ANTIDEPRESSANT EFFECT” (Daiichi Sankyo Company, Limited, priority 2005, dated 2006)
